According to patent US20220324835A1 (Nurix Therapeutics, Inc., priority 2018, published 2022):

How the values were obtained:
Cbl-b [1] = molecular target: T1, Cbl-b (Homo sapiens, UniProt Q13191); assay: Cbl-b inhibition assay (Cbl-b activity assay, FRET, Biological Example 1; 100 mM NaCl, 60 nM Src kinase); assay type: biochemical; conditions: upper bound stated in text lists; read-out: IC50 values in the Cbl-b inhibition assay of Biological Example 1
Method in brief: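 Steps: Src kinase phosphorylates N-terminal biotinylated Avi-tagged Cbl-b; phosphorylated Cbl-b binds Bodipy-fluorescein ubiquitin-loaded UbcH5B; streptavidin-terbium on Cbl-b sits close to the fluorescein label, producing FRET. Inhibitors block UbcH5B-Ub binding.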

T-cell [2] = assay: IL-2 secretion from T-cells co-stimulated with anti-CD3 and anti-CD28 antibody (Biological Example 2); assay type: cell-based, human; conditions: Homo sapiens, T-cell, primary human total T-cells, baseline = anti-CD3/anti-CD28 stimulated cells without inhibitor, read-out: IL-2 secretion, Anti-CD3/Anti-CD28 stimulation, fold change over baseline; for fold induction at 0.3 µM: 0.3 μM compound; for fold induction at 1 µM: 1 μM compound
Method in brief: (§1)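 T-cells were stimulated with anti-CD3 antibody alone or with anti-CD28 antibody, in the presence or absence of Cbl-b inhibitor. IL-2 secretion or CD25 surface staining was measured, and values expressed as fold over the uninhibited baseline […].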

T-cell [3] = assay: CD25 cell surface staining on T-cells stimulated with anti-CD3 antibody alone (Biological Example 2); assay type: cell-based; conditions: 1 μM compound, primary human total T-cells, baseline = anti-CD3/anti-CD28 stimulated cells without inhibitor, read-out: CD25 staining, Anti-CD3 stimulation, fold change over baseline
Cbl-b [4] = molecular target: T1, Cbl-b; assay: Cbl-b activity assay (Cbl-b inhibition assay), TR-FRET of Cbl-b interaction with UbcH5B-Ub; assay type: biochemical; conditions: assay buffer with 100 mM NaCl, 60 nM Src kinase; read-out: Cbl-b activity IC50
Method in brief: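 UbcH5B (C85K) conjugated to N-terminally Bodipy-Fluorescein-labeled ubiquitin served as the fluorescent partner. After compound preincubation, Src kinase (60 nM) with 1 mM ATP and 5 mM MgCl2 (final) was added for 1.5 h, followed by a further 1 h incubation. Some values were obtained with 50 mM NaCl and 30 nM Src.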

T-cell [5] = assay: IL-2 secretion from T-cells stimulated with anti-CD3 antibody alone (Biological Example 2); assay type: cell-based; conditions: 1 μM compound, primary human total T-cells, read-out: IL-2 secretion, Anti-CD3 stimulation, fold change over baseline
T-cell [6] = assay: CD25 cell surface staining on T-cells co-stimulated with anti-CD3 and anti-CD28 antibody (Biological Example 2); assay type: cell-based, human; conditions: Homo sapiens, T-cell, primary human total T-cells, baseline = anti-CD3/anti-CD28 stimulated cells without inhibitor, read-out: CD25 staining, Anti-CD3/Anti-CD28 stimulation, fold change over baseline; for fold induction at 0.3 µM: 0.3 μM compound; for fold induction at 1 µM: 1 μM compound
Method in brief: as §1

T1 sequence (Q13191 36-427): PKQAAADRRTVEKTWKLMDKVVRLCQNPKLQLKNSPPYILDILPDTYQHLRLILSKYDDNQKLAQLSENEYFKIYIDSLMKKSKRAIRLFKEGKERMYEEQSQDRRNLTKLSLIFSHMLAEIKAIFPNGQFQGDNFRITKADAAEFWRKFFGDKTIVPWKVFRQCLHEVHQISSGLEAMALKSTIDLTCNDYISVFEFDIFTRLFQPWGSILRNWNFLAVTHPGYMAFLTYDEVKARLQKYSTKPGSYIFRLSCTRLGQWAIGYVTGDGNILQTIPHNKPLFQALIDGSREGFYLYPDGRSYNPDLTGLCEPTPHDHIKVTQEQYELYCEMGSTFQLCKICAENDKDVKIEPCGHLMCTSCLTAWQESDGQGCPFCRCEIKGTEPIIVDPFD

| Compound | IC50 (Cbl-b [1]) | fold induction at 0.3 µM (T-cell [2]) | fold induction at 1 µM (T-cell [2]) | fold induction at 1 µM (T-cell [3]) | IC50 (Cbl-b [4]) | fold induction at 1 µM (T-cell [5]) | fold induction at 0.3 µM (T-cell [6]) | fold induction at 1 µM (T-cell [6]) |
| --- | --- | --- | --- | --- | --- | --- | --- | --- |
| Cn1cnnc1CC1(c2cccc(N3Cc4c(cc(CN5CCCC(F)(F)CC5)cc4C(F)(F)F)C3=O)c2)COC1 [Compound 528, 6-((4,4-difluoroazepan-1-yl)methyl)-2-(3-(3-((4-methyl-4H-1,2,4-triazol-3-yl)methyl)oxetan-3-yl)phenyl)-4-(trifluoromethyl)isoindolin-1-one] | ≤ 100 nM | > 7.5 | > 7.5 | > 1 | < 100 nM | > 0.201 | 1.01 to 1.3 | 1.01 to 1.3 |
| Cn1cnnc1CC1(c2cccc(N3Cc4c(cc(CN5CCC(C)(F)C5)cc4C(F)(F)F)C3=O)c2)COC1 (stereo not drawn) [Compound 435, 6-((3-fluoro-3-methylpyrrolidin-1-yl)methyl)-2-(3-(3-((4-methyl-4H-1,2,4-triazol-3-yl)methyl)oxetan-3-yl)phenyl)-4-(trifluoromethyl)isoindolin-1-one] | ≤ 100 nM | > 7.5 | > 7.5 | > 1 | < 100 nM | > 0.201 | 1.31 to 1.5 | 1.31 to 1.5 |
| Cn1cnnc1CC1(c2cccc(N3Cc4c(cc(CN5CC[C@@H]6C[C@@H]65)cc4C(F)(F)F)C3=O)c2)COC1 (single isomer, unassigned) [Compound 486b] | ≤ 100 nM | > 7.5 | > 7.5 | > 1 | < 100 nM | > 0.201 | 1.51 to 1.75 | 1.51 to 1.75 |
| CC(c1cc(C(=O)Nc2cccc(C3(Cc4nncn4C)COC3)c2)nc(C2CC2)n1)N1CC(F)C1 (stereo not drawn) [Compound 538, 2-cyclopropyl-6-(1-(3-fluoroazetidin-1-yl)ethyl)-N-(3-(3-((4-methyl-4H-1,2,4-triazol-3-yl)methyl)oxetan-3-yl)phenyl)pyrimidine-4-carboxamide] | ≤ 100 nM | 1.01 to 2.5 | 2.51 to 5 | 0.801 to 1 | < 100 nM | 0.101 to 0.15 | 1.01 to 1.3 | 1.31 to 1.5 |
| CCOc1cc(N2Cc3c(cc(CN4CC[C@H](F)C4)cc3C(F)(F)F)C2=O)cc(C2(Cc3nncn3C)COC2)c1 [Compound 468, 2-(3-ethoxy-5-{3-[(4-methyl-4H-1,2,4-triazol-3-yl)methyl]oxetan-3-yl}phenyl)-6-{[(3×)-3-fluoropyrrolidin-1-yl]methyl}-4-(trifluoromethyl)-2,3-dihydro-1H-isoindol-1-one] | ≤ 100 nM | 5 to 7.5 | > 7.5 | > 1 | < 100 nM | > 0.201 | 1.31 to 1.5 | 1.31 to 1.5 |
| Cn1cnnc1C(F)(F)[C@](C)(F)c1cccc(NC(=O)c2cc(CN3CC[C@H](F)C3)nc(C3CC3)n2)c1 [Compound 512, 2-cyclopropyl-6-{[(3S)-3-fluoropyrrolidin-1-yl]methyl}-N-{3-[(2R)-1,1,2-trifluoro-1-(4-methyl-1,2,4-triazol-3-yl)propan-2-yl]phenyl}pyrimidine-4-carboxamide] | ≤ 100 nM | 2.51 to 5 | 5 to 7.5 | 0.801 to 1 | < 100 nM | 0.051 to 0.1 | 1.01 to 1.3 | 1.01 to 1.3 |
